In the experiment the target is CFTR (Homo sapiens, UniProt P13569). As to the kind of experiment: Membrane potential dye, Enteroid Assay A. The experiment is classed as cell-based. Conditions: for Ent. A Max Activity: chloride transport as % of triple combination control (Enteroid Assay A); for EC50: human enteroid cells, 18-24 hours, acute 10 μM forskolin and 300 nM ivacaftor, read-out: Ent. A EC50. The method, then:
Base medium (ADF+++) consisted of Advanced DMEM/Ham's F12, 2 mM Glutamax, 10 mM HEPES, […] penicillin/streptomycin.
Intestinal enteroid maintenance medium (IEMM) consisted of ADF+++, 1× B27 supplement, 1× N2 supplement, 1.25 mM N-acetyl cysteine, 10 mM Nicotinamide, 50 ng/mL hEGF, 10 nM Gastrin, 1 μg/mL hR-spondin-1, 100 ng/mL hNoggin, TGF-b type 1 inhibitor A-83-01, 100 μg/mL Primocin, 10 μM P38 MAPK inhibitor SB202190.
Bath 1 Buffer consisted of 1 mM MgCl2, 160 mM NaCl, 4.5 mM KCl, 10 mM HEPES, 10 mM Glucose, 2 mM CaCl2).
Chloride Free Buffer consisted of 1 mM Magnesium Gluconate, 2 mM Calcium Gluconate, 4.5 mM Potassium Gluconate, 160 mM Sodium Gluconate, 10 mM HEPES, 10 mM Glucose.
BathI Dye Solution consisted of Bath 1 Buffer, 0.04% Pluronic F127, 20 μM Methyl Oxonol, 30 μM CaCCinh-A01, 30 μM Chicago Sky Blue.
Chloride Free Dye Solution consisted of Chloride Free Buffer, 0.04% Pluronic F127, 20 μM Methyl Oxonol, 30 μM CaCCinh-A01, 30 μM Chicago Sky Blue.
Chloride Free Dye Stimulation Solution consisted of Chloride Free Dye Solution, 10 μM forskolin, 100 μM IBMX, and 300 nM Compound III.
Human intestinal epithelial enteroid cells were obtained from the Hubrecht Institute for Developmental Biology and Stem Cell Research, Utrecht, The Netherlands and expanded in T-Flasks as previously described (Dekkers J F, Wiegerinck C L, de Jonge H R, Bronsveld I, Janssens H M, de Winter-de Groot K M, Brandsma A M, de Jong N W M, Bijvelds M J C, Scholte B J, Nieuwenhuis E E S, van den Brink S, Clevers H, van der Ent C K, Middendorp S and M Beekman J M. A functional CFTR assay using primary cystic fibrosis intestinal organoids. Nat Med. 2013 July;19(7):939-45.).
3. Enteroid Cell Harvesting and Seeding
Cells were recovered in cell recovery solution, collected by centrifugation at 650 rpm for 5 min at 4° C., resuspended in TrypLE and incubated for 5 min at 37° C. Cells were then collected by centrifugation at 650 rpm for 5 min at 4° C. and resuspended in IEMM containing 10 μM ROCK inhibitor (RI). The cell suspension was passed through a 40 μm cell strainer and resuspended at 1×10^6 cells/mL in IEMM containing 10 μM RI. Cells were seeded at 5000 cells/well into multi-well plates and incubated for overnight at 37° C., 95% humidity and 5% CO2 prior to assay.
4. Membrane Potential Dye, Enteroid Assay A
Enteroid cells were incubated with test compound in IEMM for 18-24 hours at 37° C., 95% humidity and 5% CO2. […] Briefly, cells were washed 5 times in Bath 1 Buffer. Bath 1 Dye Solution was added, and the cells were incubated for 25 min at room temperature. Following dye incubation, cells were washed 3 times in Chloride Free Dye Solution. Chloride transport was initiated by addition of Chloride Free Dye Stimulation Solution and the fluorescence signal was read for 15 min. […] Chloride transport was then expressed as a percentage of the chloride transport following treatment with 3 μM N-[(6-amino-2-pyridyl)sulfonyl]-6-(3-fluoro-5-isobutoxy-phenyl)-2-[(4S)-2,2,4-trimethylpyrrolidin-1-yl]pyridine-3-carboxamide, 3 μM (R)-1-(2,2-difluorobenzo[d][1,3]dioxol-5-yl)-N-(1-(2,3-dihydroxypropyl)-6-fluoro-2-(1-hydroxy-2-methylpropan-2-yl)-1H-indol-5-yl)cyclopropanecarboxamide and 300 nM acute N-[2,4-bis(1,1-dimethylethyl)-5-hydroxyphenyl]-1,4-dihydro-4-oxoquinoline-3-carboxamide triple combination control (% Activity).

Read-outs that look alike come from different tables or passages of the source.

Chain of CFTR (P13569 with tags, fused parts or gaps DEL508-508): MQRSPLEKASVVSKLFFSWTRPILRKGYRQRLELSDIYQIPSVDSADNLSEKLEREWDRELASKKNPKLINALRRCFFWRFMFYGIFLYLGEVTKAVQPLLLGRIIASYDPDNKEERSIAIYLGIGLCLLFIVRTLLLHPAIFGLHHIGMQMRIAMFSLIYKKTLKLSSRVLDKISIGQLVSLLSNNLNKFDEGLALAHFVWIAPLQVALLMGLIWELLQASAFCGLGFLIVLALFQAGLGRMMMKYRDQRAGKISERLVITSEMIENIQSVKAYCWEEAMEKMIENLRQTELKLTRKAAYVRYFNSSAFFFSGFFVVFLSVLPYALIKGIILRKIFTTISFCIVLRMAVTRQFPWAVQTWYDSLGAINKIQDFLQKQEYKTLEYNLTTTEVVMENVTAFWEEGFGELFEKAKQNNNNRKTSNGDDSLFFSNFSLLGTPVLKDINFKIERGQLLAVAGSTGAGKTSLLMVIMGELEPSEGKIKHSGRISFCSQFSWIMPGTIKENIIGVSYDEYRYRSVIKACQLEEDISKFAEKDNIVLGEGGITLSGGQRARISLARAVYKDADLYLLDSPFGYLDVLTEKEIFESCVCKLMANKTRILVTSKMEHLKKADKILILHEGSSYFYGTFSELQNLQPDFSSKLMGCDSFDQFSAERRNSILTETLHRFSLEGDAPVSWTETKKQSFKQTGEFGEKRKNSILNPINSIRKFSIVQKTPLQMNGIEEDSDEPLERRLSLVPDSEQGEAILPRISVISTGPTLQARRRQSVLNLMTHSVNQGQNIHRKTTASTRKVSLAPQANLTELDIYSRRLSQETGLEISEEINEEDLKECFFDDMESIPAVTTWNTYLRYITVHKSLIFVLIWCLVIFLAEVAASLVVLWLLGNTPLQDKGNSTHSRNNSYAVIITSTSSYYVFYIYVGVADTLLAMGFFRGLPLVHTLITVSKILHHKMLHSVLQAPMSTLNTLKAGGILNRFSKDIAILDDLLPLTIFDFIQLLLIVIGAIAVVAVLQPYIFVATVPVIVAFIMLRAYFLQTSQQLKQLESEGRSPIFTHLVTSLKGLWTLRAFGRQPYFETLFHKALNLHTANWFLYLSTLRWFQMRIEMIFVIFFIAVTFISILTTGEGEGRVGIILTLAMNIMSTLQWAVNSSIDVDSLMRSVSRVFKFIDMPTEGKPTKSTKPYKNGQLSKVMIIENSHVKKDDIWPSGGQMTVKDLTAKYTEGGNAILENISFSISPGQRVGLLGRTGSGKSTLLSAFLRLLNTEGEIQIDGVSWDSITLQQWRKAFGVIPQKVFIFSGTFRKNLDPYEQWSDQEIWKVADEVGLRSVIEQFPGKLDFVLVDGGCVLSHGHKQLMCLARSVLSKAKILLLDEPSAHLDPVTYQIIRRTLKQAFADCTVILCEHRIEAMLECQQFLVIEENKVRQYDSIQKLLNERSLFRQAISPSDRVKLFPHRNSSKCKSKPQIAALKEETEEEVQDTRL

Turning to `Cc1cccc(C)c1-c1cc2nc(n1)NS(=O)(=O)c1cccc(c1)C(=O)N(C)C[C@@H](c1ccc(C(C)(C)C)cc1)O2` (single isomer, unassigned) [Compound 12, 10-(4-tert-butylphenyl)-6-(2,6-dimethylphenyl)-12-methyl-2,2-dioxo-9-oxa-2λ^6-thia-3,5,12,19-tetrazatricyclo[12.3.1.14,8]nonadeca-1(18),4(19),5,7,14,16-hexaen-13-one], for the setting “Table 7”, the “Ent. A Max Activity” value is “++ (++ is 30-60%)” and the EC50 (in general, the concentration giving half of the maximal effect) was less than 1 µM. Turning to `Cc1cccc(C)c1-c1cc2nc(n1)NS(=O)(=O)c1cccc(c1)C(=O)N(C)C[C@H](c1cccc(C(C)(C)C)c1)O2` (single isomer, unassigned) [Compound 15, 10-(3-tert-butylphenyl)-6-(2,6-dimethylphenyl)-12-methyl-2,2-dioxo-9-oxa-2λ^6-thia-3,5,12,19-tetrazatricyclo[12.3.1.14,8]nonadeca-1(18),4(19),5,7,14,16-hexaen-13-one], under “Table 7”, the “Ent. A Max Activity” value was “+ (+ is <30%)” and the EC50 was in the range of 3 to 30 µM. On to `Cc1cccc(C)c1-c1cc2nc(n1)NS(=O)(=O)c1cccc(c1)C(=O)N(C)C[C@@H](c1cccc(C(C)(C)C)c1)O2` (single isomer, unassigned) [Compound 17, 10-(3-tert-butylphenyl)-6-(2,6-dimethylphenyl)-12-methyl-2,2-dioxo-9-oxa-2λ^6-thia-3,5,12,19-tetrazatricyclo[12.3.1.14,8]nonadeca-1(18),4(19),5,7,14,16-hexaen-13-one], for which, for the setting “Table 7”, the “Ent. A Max Activity” value was “+++ (+++ is >60%)” and the EC50 is less than 1 µM. Regarding `Cc1cccc(C)c1-c1cc2nc(n1)NS(=O)(=O)c1cccc(c1)C(=O)N(CCC1CCOCC1)[C@H](CCC1(C(F)(F)F)CC1)CO2` (single isomer, unassigned) [Compound 73, 6-(2,6-dimethylphenyl)-2,2-dioxo-12-(2-tetrahydropyran-4-ylethyl)-11-[2-[1-(trifluoromethyl)cyclopropyl]ethyl]-9-oxa-2λ^6-thia-3,5,12,19-tetrazatricyclo[12.3.1.14,8]nonadeca-1(18),4(19),5,7,14,16-hexaen-13-one], the “Ent. A Max Activity” value (Table 6) was “+ (+ is <30%)”. Regarding `Cc1cccc(C)c1-c1cc2nc(n1)NS(=O)(=O)c1cccc(c1)C(=O)N(CC(O)CO)[C@H](CC(C)C)CO2` (stereo in doubt) [Compound 39, (11R)-12-[(2S)-2,3-Dihydroxypropyl]-6-(2,6-dimethylphenyl)-11-(2-methylpropyl)-9-oxa-2λ^6-thia-3,5,12,19-tetraazatricyclo[12.3.1.14,8]nonadeca-1(17),4(19),5,7,14(18),15-hexaene-2,2,13-trione], where the note is “Table 6”, the “Ent. A Max Activity” value is “+++ (+++ is >60%)” and the EC50 is less than 1 µM. With `Cc1cccc(C)c1-c1cc2nc(n1)NS(=O)(=O)c1cccc(c1)C(=O)N(Cc1ccccn1)CCCO2` [Compound 5, 6-(2,6-Dimethylphenyl)-2,2-dioxo-13-(2-pyridylmethyl)-9-oxa-2λ^6-thia-3,5,13,20-tetrazatricyclo[13.3.1.14,8]icosa-1(19),4(20),5,7,15,17-hexaen-14-one], for the setting “Table 6”, the “Ent. A Max Activity” value was “+++ (+++ is >60%)” and the concentration for a half-maximal effect (EC50) was in the range of 1 to 3 µM.

In the case of `Cc1cccc(C)c1-c1cc2nc(n1)NS(=O)(=O)c1cccc(c1)C(=O)N(C)CC(c1ccc(-c3ccncc3)cc1)O2` (centres unmarked) [Compound 9, 6-(2,6-Dimethylphenyl)-12-methyl-2,2-dioxo-10-[4-(4-pyridyl)phenyl]-9-oxa-2λ^6-thia-3,5,12,19-tetrazatricyclo[12.3.1.14,8]nonadeca-1(18),4(19),5,7,14,16-hexaen-13-one], for the setting “Table 6”, the “Ent. A Max Activity” value was “++ (++ is 30-60%)” and the EC50 is less than 1 µM.

In the case of `Cc1cccc(C)c1-c1cc2nc(n1)NS(=O)(=O)c1cccc(c1)C(=O)N(C)C(c1ccc(C(C)(C)C)cc1)CO2` (centres unmarked) [Compound 13, 11-(4-tert-butylphenyl)-6-(2,6-dimethylphenyl)-12-methyl-2,2-dioxo-9-oxa-2λ^6-thia-3,5,12,19-tetrazatricyclo[12.3.1.14,8]nonadeca-1(18),4(19),5,7,14,16-hexaen-13-one], where the note is “Table 7”, the “Ent. A Max Activity” value is “++ (++ is 30-60%)” and the EC50 is less than 1 µM.

In the case of `Cc1cccc(C)c1-c1cc2nc(n1)NS(=O)(=O)c1cccc(c1)C(=O)N(C[C@@H](O)CO)[C@H](CC(C)C)CO2` [Compound 38, (11R)-12-[(2R)-2,3-Dihydroxypropyl]-6-(2,6-dimethylphenyl)-11-(2-methylpropyl)-9-oxa-2λ^6-thia-3,5,12,19-tetraazatricyclo[12.3.1.14,8]nonadeca-1(17),4(19),5,7,14(18),15-hexaene-2,2,13-trione], for the setting “Table 6”, the “Ent. A Max Activity” value was “+++ (+++ is >60%)” and the EC50 was less than 1 µM. For the compound `Cc1cccc(C)c1-c1cc2nc(n1)NS(=O)(=O)c1cccc(c1)C(=O)N(Cc1cc3n(n1)CCNC3=O)[C@H](CC(C)C)CO2` [Compound 41, (11R)-6-(2,6-dimethylphenyl)-11-isobutyl-2,2-dioxo-12-[(4-oxo-6,7-dihydro-5H-pyrazolo[1,5-a]pyrazin-2-yl)methyl]-9-oxa-2λ^6-thia-3,5,12,19-tetrazatricyclo[12.3.1.14,8]nonadeca-1(18),4(19),5,7,14,16-hexaen-13-one], for the setting “Table 6”, the “Ent. A Max Activity” value is “+++ (+++ is >60%)” and the EC50 was less than 1 µM. In the same order, the values of `Cc1cccc(C)c1-c1cc2nc(n1)NS(=O)(=O)c1cccc(c1)C(=O)N(Cc1ccccc1)C(C(=O)NC(C)(C)C)CO2` (centres unmarked) [Compound 44, 12-benzyl-N-tert-butyl-6-(2,6-dimethylphenyl)-2,2,13-trioxo-9-oxa-2λ^6-thia-3,5,12,19-tetrazatricyclo[12.3.1.14,8]nonadeca-1(18),4(19),5,7,14,16-hexaene-11-carboxamide] are “++ (++ is 30-60%)” and 3 to 30 µM. With `Cc1cccc(C)c1-c1cc2nc(n1)NS(=O)(=O)c1cccc(c1)CN(C(=O)CC1CCOCC1)[C@H](CC(C)C)CO2` [Compound 45, (11R)-6-(2,6-Dimethylphenyl)-11-(2-methylpropyl)-12-[2-(oxan-4-yl)acetyl]-9-oxa-2λ^6-thia-3,5,12,19-tetraazatricyclo[12.3.1.14,8]nonadeca-1(17),4,6,8(19),14(18),15-hexaene-2,2-dione], the “Ent. A Max Activity” value (Table 7) is reported as “+ (+ is <30%)”.

Consider `Cc1cccc(C)c1-c1cc2nc(n1)NS(=O)(=O)c1cccc(c1)C(=O)N(CCOCc1ccccc1)[C@H](CC(C)C)CO2` [Compound 81, (11R)-12-[2-(Benzyloxy)ethyl]-6-(2,6-dimethylphenyl)-11-(2-methylpropyl)-9-oxa-2λ^6-thia-3,5,12,19-tetraazatricyclo[12.3.1.14,8]nonadeca-1(17),4,6,8(19),14(18),15-hexaene-2,2,13-trione], for which, for the setting “Table 6”, the “Ent. A Max Activity” value was “+++ (+++ is >60%)” and the EC50 was less than 1 µM. Consider `COc1ccnc(CN2C(=O)c3cccc(c3)S(=O)(=O)Nc3nc(cc(-c4c(C)cccc4C)n3)OC[C@H]2CC(C)C)c1` [Compound 82, (11R)-6-(2,6-Dimethylphenyl)-11-isobutyl-12-[(4-methoxy-2-pyridyl)methyl]-2,2-dioxo-9-oxa-2λ^6-thia-3,5,12,19-tetrazatricyclo[12.3.1.14,8]nonadeca-1(18),4(19),5,7,14,16-hexaen-13-one], for which, where the note is “Table 6”, the “Ent. A Max Activity” value is given as “+++ (+++ is >60%)” and the EC50 is less than 1 µM.

The values are drawn from patent US20240150377A1, “MODULATORS OF CYSTIC FIBROSIS TRANSMEMBRANE CONDUCTANCE REGULATOR” (VERTEX PHARMACEUTICALS INCORPORATED, priority 2020, published 2024).
